A short description of assay [1]: Antioxidant activity assessed as DPPH radical scavenging activity. Type of assay: functional.
Assay [2] can be described thus: Antioxidant activity assessed as nitric oxide radical scavenging activity. Type of assay: functional.

As to `Fc1ccc2c(c1)CCC(c1nnc(-c3ccc(Cl)cc3)o1)O2` (stereo unspecified), the half-inhibitory concentration (IC50) in assay [1] was 17.2 µM; in assay [2], 85.9 µM.

With `Fc1ccc2c(c1)CCC(c1nnc(-c3ccccc3)o1)O2` (stereo unspecified), the IC50 in assay [1] was determined as 28.7 µM; in assay [2] it was 85.9 µM.

Take `Fc1ccc2c(c1)CCC(c1nnc(-c3cc(F)c(F)c(F)c3F)o1)O2` (stereo unspecified): the half-maximal inhibitory concentration (IC50) in assay [1] came out at 29 µM; in assay [2], 85.9 µM.

On to `COc1cc(-c2nnc(C3CCc4cc(F)ccc4O3)o2)cc(OC)c1OC` (stereo unspecified), for which the 50% inhibitory concentration (IC50) is 43.2 µM in assay [1] and 87 µM in assay [2].

On to `Fc1ccc2c(c1)CCC(c1nnc(-c3cn(Cc4c(F)cccc4F)nn3)o1)O2` (stereo unspecified), for which the 50% inhibitory concentration (IC50) in assay [1] came out at 23.1 µM; in assay [2], 88 µM.

Consider `O=[N+]([O-])c1ccc(-c2nnc(C3CCc4cc(F)ccc4O3)o2)cc1` (stereo unspecified), for which the IC50 was 28.7 µM in assay [1] and 84.8 µM in assay [2].

On to `Fc1ccc2c(c1)CCC(c1nnc(-c3cccc(Cl)c3)o1)O2` (stereo unspecified), for which the results for the half-maximal inhibitory concentration (IC50) in assay [1] and in assay [2] were 23.1 µM and 84.8 µM, respectively.

For `Fc1ccc2c(c1)CCC(c1nnc(-c3cnccn3)o1)O2` (stereo unspecified), the values for the IC50 in assay [1] and in assay [2] were 73.4 µM and 87 µM, respectively.

`Nc1ccc(-c2nnc(C3CCc4cc(F)ccc4O3)o2)cc1` (stereo unspecified): the IC50 in assay [1] stood at 34.9 µM; in assay [2] it was 89.1 µM.

Take `Fc1ccc2c(c1)CCC(c1nnc(C3CCc4cc(F)ccc4O3)o1)O2` (stereo unspecified): the half-maximal inhibitory concentration (IC50) in assay [1] was determined as 29 µM; in assay [2] it was 87 µM.

As for `O=c1cc(-c2nnc(C3CCc4cc(F)ccc4O3)o2)oc2ccc(F)cc12` (stereo unspecified), the figures for the half-inhibitory concentration (IC50) in assay [1] and in assay [2] were 34.9 µM and 73.9 µM, respectively.

With `Fc1ccc2c(c1)CCC(c1nnc(-c3ccccc3Cl)o1)O2` (stereo unspecified), the IC50 in assay [1] came to 40.8 µM; in assay [2], 88 µM.

With `O=C1O[C@H]([C@@H](O)CO)C(O)=C1O` [ASCORBIC ACID], the IC50 in assay [1] was 44.2 µM; in assay [2], 42.6 µM.

Source of the values: ChEMBL document CHEMBL4627369, “Synthesis of novel of 2, 5-disubstituted 1, 3, 4- oxadiazole derivatives and their in vitro anti-inflammatory, anti-oxidant evaluation, and molecular docking study” (Bioorg Med Chem Lett, 2020).
